Experimental data as given in patent US20200085782A1, “COMPOSITIONS AND METHODS OF ENHANCING OR AUGMENTING TYPE I IFN PRODUCTION” (Mavupharma, Inc., priority 2016, published 2020).

Legend:
human recombinant ENPP1 [1] = target: T1, human recombinant ENPP1 (Homo sapiens, UniProt P22413); experiment: ENPP1 assay with 2′,3′-cGAMP substrate (AMP-Glo); format: biochemical
T1 sequence (P22413 1-925): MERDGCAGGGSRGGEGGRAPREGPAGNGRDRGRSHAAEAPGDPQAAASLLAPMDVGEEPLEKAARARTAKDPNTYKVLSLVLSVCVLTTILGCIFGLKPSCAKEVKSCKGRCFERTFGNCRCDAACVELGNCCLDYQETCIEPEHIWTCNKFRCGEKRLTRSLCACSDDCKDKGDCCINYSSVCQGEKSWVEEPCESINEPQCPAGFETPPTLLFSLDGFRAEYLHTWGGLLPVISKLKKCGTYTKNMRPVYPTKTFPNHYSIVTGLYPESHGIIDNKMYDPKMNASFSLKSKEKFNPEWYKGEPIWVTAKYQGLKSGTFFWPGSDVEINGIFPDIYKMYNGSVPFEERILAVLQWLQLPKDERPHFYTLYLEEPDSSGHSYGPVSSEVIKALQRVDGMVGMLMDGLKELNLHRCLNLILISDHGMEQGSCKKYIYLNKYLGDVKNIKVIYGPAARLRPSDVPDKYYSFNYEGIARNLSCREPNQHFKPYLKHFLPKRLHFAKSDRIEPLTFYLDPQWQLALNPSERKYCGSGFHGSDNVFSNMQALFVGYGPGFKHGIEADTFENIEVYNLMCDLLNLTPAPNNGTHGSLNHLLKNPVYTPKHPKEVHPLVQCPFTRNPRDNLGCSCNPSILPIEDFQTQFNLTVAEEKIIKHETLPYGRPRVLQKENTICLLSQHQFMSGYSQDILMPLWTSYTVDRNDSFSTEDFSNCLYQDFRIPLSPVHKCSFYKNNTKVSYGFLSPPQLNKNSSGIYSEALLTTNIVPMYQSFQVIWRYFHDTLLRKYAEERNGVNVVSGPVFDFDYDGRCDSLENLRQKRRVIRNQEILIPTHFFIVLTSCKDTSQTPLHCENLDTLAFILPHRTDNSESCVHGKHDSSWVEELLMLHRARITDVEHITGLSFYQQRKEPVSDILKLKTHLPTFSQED
Protocol: The AMP-Glo™ Assay Kit contains two reagents that are added sequentially. The first converts the 5′-AMP produced in the reaction to 5′ADP. The second converts the 5′-ADP to 5′ATP and reacts the 5′-ATP with the luciferase/luciferin pair to produce the luminescence signal. […] Inhibitors are added at final concentrations ranging between 10 μM and 30 pM depending on the compound. Duplicate wells are run at each inhibitor concentration. The final assay volume is 18 μL and human recombinant ENPP1 is present at 5 ng/well. The assay is initiated by the addition of substrate (20 μM 2′3′cGAMP final concentration), and incubated for 30 minutes at 37° C. To stop the reaction, 12 μl of AMP-Glo reagent I is added and the plate is incubated for 60 minutes at room temperature. 25 μl of AMP-detection reagent is then added and the wells are again incubated for 60 minutes at room temperature. The luminescence signal is then measured using a plate-reading luminometer. Each assay plate also includes wells with no enzyme added (MIN OD) and wells with no inhibitor added (MAX OD). The percent inhibition of ENPP1 for each sample is then calculated as: […]
(§1) IC50 values of compounds were calculated by entering the percent inhibition values into a sigmoidal variable slope nonlinear regression model in GraphPad Prism® software. IC50 values were converted to Ki values using the Cheng-Prusoff equation2 where the Km was 15 μM, based on internal determinations.

human recombinant ENPP1 [2] = target: T1, human recombinant ENPP1; experiment: ENPP1 assay with AMP-pNP substrate (ATP analog), absorbance at 405 nm; format: biochemical; details: read-out: ENPP1 inhibition Ki, AMP-pNP Substrate
Protocol: ENPP1 is an ectonucleotidase that hydrolyzes both the STING activator 2′,3′-cGAMP and 5′ATP (ATP). In some instances, an inhibitor of ENPP-1 is capable of selectively blocking the hydrolysis of 2′,3′-cGAMP while only minimally inhibiting the hydrolysis of ATP. […] The ENPP1 assay with AMP-pNP substrate is conducted in a buffer containing 50 mM Tris-HCl (pH 8.5)/250 mM NaCl/0.5 mM CaCl2/1 μM ZnCl2/0.1% DMSO. Inhibitors are added at final concentrations ranging between 10 μM and 30 pM depending on the compound. Duplicate wells are run at each inhibitor concentration. The final assay volume is 40 μL and human recombinant ENPP1 is present at 60 ng/well. The assay is initiated by the addition of substrate (300 μM AMP-pNP final concentration), and incubated for 20 minutes at 37° C. The absorbance at 405 nm is then read in a Tecan® plate reader. Each assay plate also includes wells with no enzyme added (MIN OD) and wells with no inhibitor added (MAX OD). The percent inhibition of ENPP1 for each sample is then calculated as: […]
as §1, with “equation,” for “equation2”, “151” for “15”, “determinations” for “determinations.”

THP-1 cells = experiment: PDE inhibitors library screen on cGAMP activated THP-1 cells, IFNβ ELISA; format: cell-based, human; details: THP-1 cells activated with 2′,3′-cGAMP; test compound 10 μM; 24 hours; FIG. 3A-3C
Protocol: THP-1 Cell Activation and Screening of Test Compounds: • (a) THP-1 cells from bulk cultures were counted and suspended in RPMI 1640, 20% FBS, 2.5 mM L-alanyl-L-glutamine at a concentration of 5.5×10^6 cells/mL. The THP-1 cells were subsequently seeded into 96 well round bottom plates—volume of 180 μL/well (1×10^6 cells per well), and the plate was incubated for 1 hour at 37° C., 5% CO2. • (b) Test compounds comprising known phosphodiesterase inhibitors (PDEs), were screened in triplicate (N1, N2, N3) on THP-1 cells. For compound screening, test compounds were assayed at a final concentration of 10 μM. A 200 μM (0.2 mM) working solution of each compound was prepared by diluting 10 mM DMSO stock solutions of each compound in media at a dilution of 50:1 (1640, 20% FBS, 2.5 mM L-alanyl-L-glutamine). […] Cell culture supernatants were then transferred to a clean plate and stored at −80° C. until ready to analyze for IFNβ levels. • (j) IFNβ levels in cell culture supernatants were determined by ELISA according to the manufacturer's instructions (VeriKine Human IFNβ Assay). • (k) The interpolated data was normalized to vehicle control, or unstimulated control, and analyzed.

Row | SMILES | Substrate Selectivity Ki Ratio AMP-pNP/2′3′cGAMP (human recombinant ENPP1 [1]; Ki (AMP-pNP)/Ki (2′3′-cGAMP)) | other results
1 | COc1cc2ncnc(NCc3ccc(NS(N)(=O)=O)cc3)c2cc1OC [Compound 22] | 34.7 | –
2 | CS(=O)(=O)N1CCc2ccc(-c3ncnc4ccccc34)cc2C1 [Compound 8] | >158 | –
3 | COc1cc2nc(-c3ccccc3)nc(N3CCC(CCNS(N)(=O)=O)CC3)c2cc1OC [Compound 23] | >23.9 | –
4 | COc1cc2ccc(=O)n(Cc3ccc(NS(N)(=O)=O)cc3)c2cc1OC [Compound 10] | >127 | Ki (human recombinant ENPP1 [1]; read-out: ENPP1 inhibition Ki, cGAMP Substrate): 234 nM; Ki (human recombinant ENPP1 [2]): > 30000 nM
5 | CN1CNc2ncnc(N3CCC(CCNS(C)(=O)=O)CC3)c21 [Compound 9] | >128 | –
6 | COc1cc2nccc(Oc3ccc(NS(=O)(=O)c4ccccc4)cc3)c2cc1OC [Compound 25] | >6.80 | selectivity for inhibition of cGAMP over AMP-pNP hydrolysis by ENPP1 (human recombinant ENPP1 [1]; Ki (AMP-pNP)/Ki (2′3′-cGAMP)): ~6.8 fold
7 | COc1cc2ncnc(-c3ccc4c(c3)CN(S(N)(=O)=O)CC4)c2cc1OC [Compound 21] | 36.2 | –
8 | COc1cc2ncnc(-c3ccc(CNS(N)(=O)=O)cc3)c2cc1OC [Compound 17] | 48.3 | –
9 | O=c1cc(-c2ccc(O)c(O)c2)oc2cc(O)cc(O)c12 [Compound 1] | – | inhibition at 1 µM (human recombinant ENPP1 [1]; at 1 μM compound, AMP-GLO method, read-out: Inhibition of ENPP1 with cGAMP as the Substrate): 76%; inhibition at 10 µM (human recombinant ENPP1 [1]; at 10 μM compound, AMP-GLO method, read-out: Inhibition of ENPP1 with cGAMP as the Substrate): 99%; cGAMP mediated IFNβ production (THP-1 cells): augmentation of cGAMP mediated IFNβ production

Now from value to molecule, other results behind:

Row | Substrate Selectivity Ki Ratio AMP-pNP/2′3′cGAMP (human recombinant ENPP1 [1]; Ki (AMP-pNP)/Ki (2′3′-cGAMP)) | SMILES | other results
10 | 18.7 | COc1cc2ncnc(N3CCC4(CC3)CN(S(C)(=O)=O)C4)c2cc1OC [Compound 24] | –
11 | 57.3 | COc1cc2ncnc(N3CCN(C(=O)CNS(N)(=O)=O)CC3)c2cc1OC [Compound 15] | –
12 | 47.7 | COc1cc2nc(N)nc(N3CCC(CCNS(N)(=O)=O)CC3)c2cc1OC [Compound 18] | –
13 | >89.0 | CCN(C)S(=O)(=O)NCCC1CCN(c2ncnc3cc(OC)c(OC)cc23)CC1 [Compound 12] | –
14 | >642 | COc1cc2ncnc(N3CCC(CCN)CC3)c2cc1OC [Compound 5] | –
15 | >38.7 | CNc1nc(N2CCC(CCNS(N)(=O)=O)CC2)c2cc(OC)c(OC)cc2n1 [Compound 20] | –
16 | 244 | COc1cc2ncc(C#N)c(N3CCC(CCNS(C)(=O)=O)CC3)c2cc1OC [Compound 7] | –
17 | 86.7 | COc1cc2ncnc(N3CCC(CNS(N)(=O)=O)CC3)c2cc1OC [Compound 13] | –
18 | 44.8 | COc1cc2ncnc(N3CCC4(CC3)CCN(S(C)(=O)=O)C4)c2cc1OC [Compound 19] | –
